Experimental findings from patent US20230404996A1, “APPLICATION OF ISOQUINOLINE COMPOUND IN TUMOR TREATMENT” (NANJIANG SHIJIANG MEDICINE TECHNOLOGY CO., LTD, priority 2020, published 2023) are described below.

By IC50 is commonly meant the concentration at which inhibition is half-maximal.

Each structure is given as a SMILES string. Counter-ions that a name gives are not always drawn. Like-named read-outs stand apart in the source and are kept apart here.

The test system of experiment [1] is NCI-H82. Nature of the experiment: Cell viability (CellTiter-Glo) IC50 on tumor cell lines. To be noted: NCI-H82, 3 days of culture, read-out: Inhibitory effect on cell line (IC50). The experiment is classed as cell-based, human. The procedure: (§1) The inhibitory effect of isoquinoline compounds on various tumor cell lines was detected using cell activity detection reagent.
(§2) Cell viability was detected using the Promega CellTiter-Glo kit, the kit reflected cell viability by directly measuring intracellular ATP content. In this experiment, the IC50 values of isoquinoline compounds on various tumor cell lines was determined.
(§3) Tumor cells were cultured in 10% FBS-containing medium (+p/s), and incubated for 3 h or the following day, then the gradient diluted isoquinoline compound was added. After 3 days of culture, the relevant IC50 (50% inhibiting concentration) was measured. The name, source and culture conditions of each tumor cell line were as follows: • Cell line NCI-H82 (ATCC, No. HTB-175) was cultured in 10% fetal bovine serum-containing RPMI1640 medium (+P/S). • Cell line G-401 (ATCC, No. CRL-1441) was cultured in 10% fetal bovine serum-containing McCoy's 5a medium (+P/S). • Cell line MDA-MB-453 (ATCC, No. HTB-131) was cultured in 10% fetal bovine serum-containing Leibovit's L-15 medium (+P/S). • Cell line SW48 (ATCC, No. CCL-231) was cultured in 10% fetal bovine serum-containing Leibovitz's L-15 medium (+P/S). • Cell line CFPAC-1 (ATCC, No. CRL-1918) was cultured in 10% fetal bovine serum-containing IMDM medium (+P/S). • Cell line 786-O (ATCC, No. CRL-1932) was cultured in 10% fetal bovine serum-containing RPMI1640 medium (+P/S). • Cell line GB-I (JCRB, No. IFO50489) was cultured in 10% fetal bovine serum-containing DMEM medium (+P/S). • Cell line SF126 (JCRB, No. IFO50286) was cultured in 10% fetal bovine serum-containing EMEM medium (+P/S).
(In ATP-based viability assays light output follows the ATP content of the culture.)

The subject of experiment [2] is 786-O. The description is as above. The experiment is classed as cell-based. The settings on record: Homo sapiens, 786-0, 72 h, 3 days of culture, read-out: Inhibitory effect on cell line (IC50). The procedure: as §1, §2, §3
Experiment [3] deals with CFPAC-1. Described as above. The experiment is classed as cell-based. To be noted: Homo sapiens, 72 h; CFPAC-1, 3 days of culture; read-out: Inhibitory effect on cell line (IC50). The procedure:
as §1, §2, §3

For experiment [4], the system named is G-401. The description is as above. To be noted: Homo sapiens, 72 h; G-401, 3 days of culture; read-out: Inhibitory effect on cell line (IC50). It is filed as cell-based. The procedure: as §1, §2, §3
The test system of experiment [5] is GB-1. Described as above. The experiment is classed as cell-based. To be noted: Homo sapiens, 72 h; GB-1, 3 days of culture; read-out: Inhibitory effect on cell line (IC50). The procedure:
as §1, §2, §3

The subject of experiment [6] is MDA-MB-453. The experiment is described as above. The experiment is classed as cell-based. To be noted: Homo sapiens, 72 h; MDA-MB-453, 3 days of culture; read-out: Inhibitory effect on cell line (IC50). The procedure:
as §1, §2, §3

Experiment [7] relates to SF-126. The description is as above. It is filed as cell-based. To be noted: Homo sapiens, 72 h; SF-126, 3 days of culture; read-out: Inhibitory effect on cell line (IC50). The procedure: as §1, §2, §3
The test system of experiment [8] is SW48. The experiment is described as above. It is filed as cell-based. To be noted: Homo sapiens, 72 h; SW48, 3 days of culture; read-out: Inhibitory effect on cell line (IC50). The procedure: as §1, §2, §3
Experiment [9] has as its system D341 Med. Nature of the experiment: Cell viability (CellTiter-Glo) IC50 on brain tumor cell lines. The experiment is classed as cell-based. To be noted: 72 h, 3 days of culture, read-out: Inhibitory effect on brain tumor cell line (IC50). The procedure:
(§4) The inhibitory effect of isoquinoline compounds on various brain tumor cell lines was detected using cell activity detection reagents.
(§5) Cell viability was detected using the Promega CeliTiter-Glo kit, the kit reflected cell viability by directly measuring intracellular ATP content. In this experiment, the IC50 values of isoquinoline compounds on various brain tumor cell lines was determined.
(§6) Brain tumor cells were cultured in 10% FBS-containing medium (+p/s), and incubated for 3 h or the following day, the gradient diluted isoquinoline compound was added. After 3 days of culture, the relevant IC50 (50% inhibiting concentration) was measured. The name, source and culture conditions of each brain tumor cell line were as follows: • Cell line D341 Med (ATCC, No. HTB-187) was cultured in 20% fetal bovine serum-containing EMEM medium (+P/S). • Cell line Kelly (ECACC, No. 92110411) was cultured in RPMI1640 medium containing 10% fetal bovine serum and 2 mM glutamine; • Cell line NB-I (ATCC, No. HTB-131) was cultured in 10% fetal bovine serum-containing Leibovitz's L-15 medium (+P/S).

In experiment [10] the test system is Kelly. The description is as above. It is filed as cell-based. To be noted: 72 h, 3 days of culture, read-out: Inhibitory effect on brain tumor cell line (IC50). The procedure:
as §4, §5, §6

For experiment [11], the system named is NB-1. The description is as above. The experiment is classed as cell-based. To be noted: Homo sapiens, NB1, 72 h; NB-1, 3 days of culture; read-out: Inhibitory effect on brain tumor cell line (IC50). The procedure:
as §4, §5, §6

For experiment [12], the system named is NCI-H82 cell overexpressing NNMT protein (ov-NNMT). Nature of the experiment: Sensitivity of NCI-H82 cell after overexpression of NNMT protein (intracellular ATP detection). It is filed as cell-based, human. The settings on record: NNMT protein overexpressed alone (ov-NNMT), compared with Vector; FIG. 11. The source says:
(§7) The NCI-H82 cell overexpressing NNMT protein was obtained by inserting the NNMT gene into NCI-1-182 cell using a viral vector. The expression of DNMT1 in NCI-H82 cells was knocked down using shRNA transfection. The changes in sensitivity of cell to isoquinoline compounds was investigated using intracellular ATP detection methods after overexpression of NNMT protein and/or knockdown of DNMT1 expression. The experiment result was shown in FIG. 11, wherein, “Vector” referred to NCI-1182 cell transfected with empty virus as control group.

For experiment [13], the system named is NCI-H82 cell with knockdown of DNMT1 expression (sh-DNMT1 #1, sh-DNMT1 #2). Nature of the experiment: Sensitivity of NCI-H82 cell after knockdown of DNMT1 expression (intracellular ATP detection). The experiment is classed as cell-based, human. To be noted: DNMT1 expression knocked down (sh-DNMT1 #1 or #2), compared with Vector; FIG. 11.
Excerpt: as §7

The test system of experiment [14] is NCI-H82 cell ov-NNMT/sh-DNMT1 #1 and ov-NNMT/sh-DNMT1 #2. Nature of the experiment: Sensitivity of NCI-H82 cell after overexpression of NNMT and knockdown of DNMT1 (intracellular ATP detection). The settings on record: NNMT overexpressed and DNMT1 knocked down simultaneously; FIG. 11. It is filed as cell-based, human.
Excerpt: as §7

Experiment [15] deals with NCI-H82 tumor. Nature of the experiment: Inhibitory effect on subcutaneous NCI-H82 tumor in nude mice. The experiment is classed as in vivo. To be noted: nude mice inoculated with NCI-H82, intraperitoneally 10 mg/kg/day; FIG. 14. The text has this: (§8) To verify whether the cells sensitive to isoquinoline compounds still maintained the sensitivity to isoquinoline compounds in vivo, inhibitory effect of berberine hydrochloride on tumor-bearing mice subcutaneously inoculated with sensitive cells (NCI-H82) was detected.
(§9) 5×10^6 of normal NCI-H82 cells, NCI-H82 cells with overexpression of NNMT protein and […] of DNMT1 (i.e. ov-NNMT/sh-DNMT1, the method for overexpressing NNMT protein and knocking down DNMT1 expression was shown in Example 13) were subcutaneously inoculated in nude mice to establish tumor-bearing mice. Each group of tumor-bearing mice was injected intraperitoneally with the berberine hydrochloride at a dose of 10 mg/kg/day, the change of tumor volume size over time was measured, and the tumors were removed and photographed in each group of mice at the end of the experiment to investigate the inhibitory effect of berberine hydrochloride on the tumor. The mice in control group was injected intraperitoneally with solvent vehicle in the same method, and the tumor volume was calculated as follows: tumor volume=½ length×width^2.

The test system of experiment [16] is NCI-H82 ov-NNMT/sh-DNMT1 tumor. Nature of the experiment: Inhibitory effect on subcutaneous NCI-H82 ov-NNMT/sh-DNMT1 tumor in nude mice. It is filed as in vivo. To be noted: nude mice inoculated with ov-NNMT/sh-DNMT1, intraperitoneally 10 mg/kg/day, compared with NCI-H82 tumor; FIG. 15.
Excerpt: as §8, §9

With `C=CCOc1c(OC)ccc2cc3[n+](cc12)CCc1cc2c(cc1-3)OCO2` [Compound BBR-A2], the IC50 amounted to 0.7 µM in experiment [1] (Homo sapiens, 72 h); 37.1 µM in [2]; 14.9 µM in experiment [3]; 1.6 µM in experiment [4]; 11.2 µM in [5]; 1.3 µM in experiment [6]. The IC50 came out at 22.6 µM in [7]; 3.2 µM in experiment [8]; 1.7 µM in experiment [9]; 2.1 µM in [10]; 0.6 µM in experiment [11].
`COc1ccc2cc3[n+](cc2c1OCC(=O)OC(C)(C)C)CCc1cc2c(cc1-3)OCO2` [Compound BBR-A5]: the concentration for half-maximal inhibition (IC50) worked out at 0.5 µM in [1] (Homo sapiens, 72 h); 18.5 µM in experiment [2]; 17.7 µM in [3]; 1.1 µM in experiment [4]; 9.2 µM in experiment [5]; 0.7 µM in experiment [6]. Further, the IC50 in [7] is 15.5 µM; in [8] it was 1.8 µM; in experiment [9] it was 1.5 µM; in experiment [10], 1.8 µM; in experiment [11], 0.3 µM.
As for `CCCOc1c(OC)ccc2cc3[n+](cc12)CCc1cc2c(cc1-3)OCO2` [Compound BBR-A1], the IC50 is 0.4 µM in experiment [1] (Homo sapiens, 72 h); 16.3 µM in experiment [2]; 8.3 µM in experiment [3]; 1 µM in experiment [4]; 9.1 µM in experiment [5]; 0.8 µM in experiment [6]. The IC50 worked out at 7.5 µM in experiment [7]; 0.2 µM in [8]; 1 µM in experiment [9]; 1.3 µM in experiment [10]; 0.3 µM in experiment [11].
As for `Cc1c2[n+](cc3cc4c(cc13)OCO4)CCc1cc3c(cc1-2)OCO3` [worenine], the IC50 in experiment [1] (Homo sapiens, 72 h) is 4.3 µM; in experiment [2], above 30 µM; in [3], above 30 µM; in experiment [4], 2.3 µM; in experiment [5], above 30 µM; in experiment [6], 1.3 µM. Moreover, the IC50 is above 30 µM in experiment [7]; 9.6 µM in [8]; 4.8 µM in experiment [9]; 3.9 µM in experiment [10]; 2.6 µM in experiment [11].
As to `c1c2c(cc3c1OCO3)-c1cc3ccc4c(c3c[n+]1CC2)OCO4` [Coptisine hydrochloride], the 50% inhibitory concentration (IC50) is 1.8 µM in experiment [1]; above 30 µM in experiment [2]; 22.1 µM in experiment [3]; 3.4 µM in experiment [4]; 24.8 µM in experiment [5]; 1.6 µM in experiment [6]. Further, the IC50 is above 30 µM in experiment [7]; 6 µM in [8]; 2.8 µM in experiment [9]; 4.4 µM in experiment [10]; 2.5 µM in [11].
As for `COc1ccc2cc3[n+](cc2c1OC)CCc1cc2c(cc1-3)OCO2` [Berberine hydrochloride, reference compound], the IC50 was found to be 0.51 µM in experiment [1] (Homo sapiens, 72 h); 15.3 µM in experiment [2]; 9.5 µM in experiment [3]; 1.12 µM in experiment [4]; 19.6 µM in [5]; 0.94 µM in experiment [6]. Also, the concentration for half-maximal inhibition (IC50) turned out to be 21.3 µM in experiment [7]; 1.26 µM in experiment [8]; 4.5 µM in experiment [9]; 4.1 µM in experiment [10]; 1.7 µM in experiment [11]. In addition, the “Sensitivity of NCI-H82 cell to the compound” value in [12] and in [13] was “decreased” in each case. In experiment [14], the “Sensitivity of NCI-H82 tumor cells to the compound” value is listed as “decreased more significantly”. Further, the “Inhibitory effect on subcutaneous tumor (tumor volume)” value is “significantly inhibit” in [15] and “significantly weaker” in [16].
